According to patent US20240366756A1, “COMBINATIONS AND USES THEREOF” (Incyte Corporation, priority 2011, published 2024):

B1: RefmAb33: antibody specific for RSV, used as isotype control, shares the same Fc region as MOR00208 (SEQ ID NO: 8, 9) (antibody)
heavy: QVTLRESGPALVKPTQTLTLTCTFSGFSLSTAGMSVGWIRQPPGKALEWLADIWWDDKKHYNPSLKDRLTISKDTSKNQVVLKVTNMDPADTATYYCARDMIFNFYFDVWGQGTTVTVSSASTKGPSVFPLAPSSKSTSGGTAALGCLVKDYFPEPVTVSWNSGALTSGVHTFPAVLQSSGLYSLSSVVTVPSSSLGTQTYICNVNHKPSNTKVDKKVEPKSCDKTHTCPPCPAPELLGGPDVFLFPPKPKDTLMISRTPEVTCVVVDVSHEDPEVQFNWYVDGVEVHNAKTKPREEQFNSTFRVVSVLTVVHQDWLNGKEYKCKVSNKALPAPEEKTISKTKGQPREPQVYTLPPSREEMTKNQVSLTCLVKGFYPSDIAVEWESNGQPENNYKTTPPMLDSDGSFFLYSKLTVDKSRWQQGNVFSCSVMHEALHNHYTQKSLSLSPGK
light: DIQMTQSPSTLSASVGDRVTITCSASSRVGYMHWYQQKPGKAPKLLIYDTSKLASGVPSRFSGSGSGTEFTLTISSLQPDDFATYYCFQGSGYPFTFGGGTKVEIKRTVAAPSVFIFPPSDEQLKSGTASVVCLLNNFYPREAKVQWKVDNALQSGNSQESVTEQDSKDSTYSLSSTLTLSKADYEKHKVYACEVTHQGLSSPVTKSFNRGEC
modifications: Heavy chain RefMab33; Light chain RefMab33

Tested on: MEC-1 cells
Experiment: Cytotoxicity/ADCC cell killing of MEC-1 cells with PBMCs (FACS, propidium iodide)
Type: cell-based, human
Settings: for normalized specific killing: combination set to 1, Bendamustine 100 μg/ml, MOR00208 6.6 pM; for % dead cells: MOR00208 6.6 pm, BEN 100 μg/ml (48 h pre-incubation), E:T 30:1, 4 h, control RefMab33
From the text: MEC-1 cells: chronic B-cell leukemia cell line DSMZ #ACC497; Cell Medium: Iscove's Modified Dulbecco's Medium (IMDM) with GlutaMAX™, Invitrogen, Cat No.: 31980-048, 20% FCS; PBMCs: RPMI1640, with stabile Glutamine, PAN Biotech GmbH, Cat No.: P04-13500 supplemented with 10% FCS; Biocoll: Biochrome AG CAT No.: L6115 LOT No.: 1050T; Bendamustine: Mundipharma LOT No.: 88018; FCS: PAN CAT No.: 3302-P282403 LOT No.: P282403; and RefmAb33 (anti-RSV) with same Fc region as MOR00208.
The cytotoxicity of MOR00208 and bendamustine alone and in combination was tested in MEC-1 cells. BEN is an alkylating agent, therefore, functions via direct cytoxicity in MEC-1 cells. MOR00208 targets CD19 and additionally functions via ADCC in killing MEC-1 cells. For the following groups MEC-1 cell killing was measured: BEN at 100 μg/ml; MOR00208 at 6.6 pm and the combination of MOR00208 at 6.6 pm and BEN at 100 μg/ml. […] The following were used as controls: RefmAb33, or PBMCs alone. In both the BEN group and MOR00208+BEN combination group, MEC-1 cells were pre-incubated with BEN 48 hours prior to the ADCC assay measurements. The MEC-1 cells were stained using 1 mg/ml Calcein AM then counted and adjusted to 2×10^5/ml. The PBMCs were counted and adjusted to 6×10^6/ml. The cell killing assays were done as follows: using 96 well plates, a 100 μl cell suspension of MEC-1 cells was added per well, then 100 μl cell suspension of PBMCs was added to each well resulting in an E:T ratio of 30:1. The antibodies were diluted to 1 μg/ml in medium. Cells were centrifuged and re-suspended. To the target:effector cell-pellet, 100 μl antibody solution or according control solution was added. The mixture was incubated for 4 h in CO2-incubator at 37° C. The cell killing measurements were taken as follows: the incubated cell solution (˜100 μl) was transferred into FACS tubes and 200 μl FACS buffer (DPBS+3% FCS) and 0.5 μl PI stock solution was added to each tube. FACS-Calibur was used. Dead MEC-1 cells were stained with propidium iodide.
The values represent % dead cells. Each experiment represents PBMCs from different donors. The controls used for each experiment was RefMab33.
The values shown in Table 2 are calculated as follows: 1) from the raw data (% dead cells) shown in Table 1, the background (controls) were subtracted, resulting in the specific killing for each treatment group; then 2) the specific killing values were normalized by setting the combination of MOR00208+BEN to 1. The averages of Table 2 are depicted in FIG. 5.
[…] (CI) calculations were completed in order to determine synergy of the combination of the exemplified anti-CD19 antibody and bendamustine as compared to MOR00208 and BEN alone. Such calculations are described in Ting-Chao Chou, Theoretical Basis, Experimental Design, and Computerized Simulation of Synergism and Antagonism in Drug Combination Studies, Pharmacol Rev 58:621-681 (2006), which is incorporated by reference in its entirety and Chou T C, Talalay P, Quantitative analysis of dose-effect relationships: the combined effects of multiple drugs or enzyme inhibitors. Adv Enzyme Regul 22:27-55 (1984), which is incorporated by reference in its entirety. The methods of Chou-Talalay are carried out using the CI-isobol method.
The median-effect equation models of the effect of an inhibitor (such as a drug) as Fa/Fu=(D/D50)^m, where D is the dose, Fa and Fu is the fraction of the system affected and unaffected by the dose D (Fa+Fu=1); D50 is the dose producing the median effect (e.g. IC50, ED50, LD50). The constant m determines the shape of the dose-effect curve. We used Excel Fit software to carry out a linear regression calculation to estimate the parameters m and D50.
The effects of the combination on MEC-1 cells is measured % cell death as described above.

Molecule	normalized specific killing (Average of experiments 1-3)	% dead cells (Experiment 1 (PBMC donor)) [%]	normalized specific killing (Experiment 1, background subtracted)	% dead cells (Experiment 2 (PBMC donor)) [%]	normalized specific killing (Experiment 2, background subtracted)	% dead cells (Experiment 3 (PBMC donor)) [%]	normalized specific killing (Experiment 3, background subtracted)	EC50 (concentration chosen as near or at the EC50, read-out: EC50 (MEC-1 cell killing)) [pM]	Bonferroni's Multiple Comparison Test Mean Diff. (normalized specific killing, monotherapy vs. BEN + MOR00208 combination)
MOR00208: anti-CD19 antibody; variable domains shown in FIG. 3, heavy and light chain Fc regions in FIG. 4	0.6	73.6	0.70	41.5	0.50	57.2	0.50	~6.6	−0.4321
B1	–	25.2	–	18	–	30.9	–	–	–
